ChEMBL document CHEMBL5260810, “Inhibition of bromodomain-containing protein 9 for the prevention of epigenetically-defined drug resistance” (Bioorg Med Chem Lett, 2017)

Assays:
[1] = Cytotoxicity against human KHM-5M cells measured after 8 days; type: functional, cell-based; details: 192 h
[2] = Cytotoxicity against human T.T cells measured after 8 days; type: functional, cell-based; details: TT, 192 h
[3] = Cytotoxicity against human MR1-3 cells measured after 8 days; type: functional, cell-based; details: MR1-3, 192 h
[4] = Cytotoxicity against human OVISE cells measured after 8 days; type: functional, cell-based; details: 192 h
NALM-6 = assay: Cytotoxicity against human NALM-6 cells measured after 8 days; type: functional, cell-based; details: NALM-6, 192 h
G-402 = assay: Cytotoxicity against human G-402 cells measured after 8 days; type: functional, cell-based; details: G-402, 192 h
KINGS-1 = assay: Cytotoxicity against human KINGS-1 cells measured after 8 days; type: functional, cell-based; details: KINGS-1, 192 h
U2OS = assay: Cytotoxicity against human U2OS cells measured after 8 days; type: functional, cell-based; details: 192 h
[5] = Cytotoxicity against human BICR 22 cells measured after 8 days; type: functional, cell-based; details: BICR 22, 192 h
[6] = Cytotoxicity against human SBC-7 cells measured after 8 days; type: functional, cell-based; details: SBC-7, 192 h
[7] = Cytotoxicity against human COV318 cells measured after 8 days; type: functional, cell-based; details: COV318, 192 h
[8] = Cytotoxicity against human CL-34 cells measured after 8 days; type: functional, cell-based; details: CL-34, 192 h
[9] = Cytotoxicity against human KP-N-SI9s cells measured after 8 days; type: functional, cell-based; details: 192 h
[10] = Cytotoxicity against human MOLP8 cells measured after 8 days; type: functional, cell-based; details: MOLP-8, 192 h
[11] = Cytotoxicity against human NCE-G 84 cells measured after 8 days; type: functional, cell-based; details: NCE-G 84, 192 h
TK-10 = assay: Cytotoxicity against human TK-10 cells measured after 8 days; type: functional, cell-based; details: TK-10, 192 h
[12] = Cytotoxicity against human BT-B cells measured after 8 days; type: functional, cell-based; details: 192 h
SK-N-SH = assay: Cytotoxicity against human SK-N-SH cells measured after 8 days; type: functional, cell-based; details: 192 h
RT-112 = assay: Cytotoxicity against human RT-112 cells measured after 8 days; type: functional, cell-based; details: RT-112, 192 h
NCI-H889 = assay: Cytotoxicity against human NCI-H889 cells measured after 8 days; type: functional, cell-based; details: NCI-H889, 192 h
[13] = Cytotoxicity against human KE-39 cells measured after 8 days; type: functional, cell-based; details: KE-39, 192 h
[14] = Cytotoxicity against human GCH-nu-YS cells measured after 8 days; type: functional, cell-based; details: 192 h
NCI-H716 = assay: Cytotoxicity against human NCI-H716 cells measured after 8 days; type: functional, cell-based; details: NCI-H716, 192 h
Hs 766 = assay: Cytotoxicity against human Hs 766 cells measured after 8 days; type: functional, cell-based; details: Hs 766, 192 h
[15] = Cytotoxicity against human SNU-601 cells measured after 8 days; type: functional, cell-based; details: SNU-601, 192 h
WM 266-4 = assay: Cytotoxicity against human WM266-4 cells measured after 8 days; type: functional, cell-based; details: WM 266-4, 192 h
[16] = Cytotoxicity against human HCC850 cells measured after 8 days; type: functional, cell-based; details: HCC850, 192 h
SK-N-BE(2) = assay: Cytotoxicity against human SK-N-BE(2) cells measured after 8 days; type: functional, cell-based; details: SKNBE2, 192 h
[17] = Cytotoxicity against human SK23 cells measured after 8 days; type: functional, cell-based; details: SK-MEL-23, 192 h
[18] = Cytotoxicity against human MCAS cells measured after 8 days; type: functional, cell-based; details: 192 h
SU-DHL-6 = assay: Cytotoxicity against human SU-DHL-6 cells measured after 8 days; type: functional, cell-based; details: SU-DHL-6, 192 h
NCI-H187 = assay: Cytotoxicity against human NCI-H187 cells measured after 8 days; type: functional, cell-based; details: NCI-H187, 192 h
DMS-273 = assay: Cytotoxicity against human DMS-273 cells measured after 8 days; type: functional, cell-based; details: DMS-273, 192 h
[19] = Cytotoxicity against human PK-45P cells measured after 8 days; type: functional, cell-based; details: 192 h
SNU-16 = assay: Cytotoxicity against human SNU-16 cells measured after 8 days; type: functional, cell-based; details: SNU-16, 192 h
OE33 = assay: Cytotoxicity against human OE33 cells measured after 8 days; type: functional, cell-based; details: OE33, 192 h
EJM = assay: Cytotoxicity against human EJM cells measured after 8 days; type: functional, cell-based; details: 192 h
COLO-320-HSR = assay: Cytotoxicity against human COLO 320HSR cells measured after 8 days; type: functional, cell-based; details: 192 h
[20] = target: GABA-A receptor; alpha-1/beta-2/gamma-2 (Homo sapiens) (UniProt P14867+P47870+P18507); assay: Inhibition of GABA alpha1/beta2/gamma2 (unknown origin) at 1 uM relative to control; type: protein-complex assay
[21] = Cytotoxicity against mouse TRAMP-C2 cells measured after 8 days; type: functional, cell-based; details: TRAMP-C2, 192 h
HEC-1-A = assay: Cytotoxicity against human HEC-1-A cells measured after 8 days; type: functional, cell-based; details: 192 h
SK-MEL-24 = assay: Cytotoxicity against human SK-MEL-24 cells measured after 8 days; type: functional, cell-based; details: SK-MEL-24, 192 h
[22] = Cytotoxicity against human Ri-1 cells measured after 8 days; type: functional, cell-based; details: Ri-1, 192 h
A673 = assay: Cytotoxicity against human A673 cells measured after 8 days; type: functional, cell-based; details: A673, 192 h
[23] = Cytotoxicity against human KR7414 cells measured after 8 days; type: functional, cell-based; details: KR7414, 192 h
WM-115 = assay: Cytotoxicity against human WM-115 cells measured after 8 days; type: functional, cell-based; details: WM-115, 192 h
Karpas-1106P = assay: Cytotoxicity against human KARPAS-1106P cells measured after 8 days; type: functional, cell-based; details: 192 h
KYSE-520 cell line = assay: Cytotoxicity against human KYSE520 cells measured after 8 days; type: functional, cell-based; details: KYSE-520, 192 h
SNU-475 = assay: Cytotoxicity against human SNU-475 cells measured after 8 days; type: functional, cell-based; details: SNU-475, 192 h
KYSE-30 = assay: Cytotoxicity against human KYSE-30 cells measured after 8 days; type: functional, cell-based; details: KYSE-30, 192 h
[24] = Cytotoxicity against human MS751 cells measured after 8 days; type: functional, cell-based; details: MS751, 192 h
KMS-12-PE = assay: Cytotoxicity against human KMS-12-PE cells measured after 8 days; type: functional, cell-based; details: 192 h
CCF-STTG1 = assay: Cytotoxicity against human CCF-STTG1 cells measured after 8 days; type: functional, cell-based; details: CCF-STTG1, 192 h
MCF-10A = assay: Cytotoxicity against human MCF-10A PTEN-/- cells measured after 8 days; type: functional, cell-based; details: 192 h
Hep 3B2 = assay: Cytotoxicity against human Hep 3B2.1-7 cells measured after 8 days; type: functional, cell-based; details: Hep3B, 192 h
[25] = Cytotoxicity against human HEC-59 cells measured after 8 days; type: functional, cell-based; details: HEC-59, 192 h
NCI-H2171 = assay: Cytotoxicity against human NCI-H2171 cells measured after 8 days; type: functional, cell-based; details: NCI-H2171, 192 h
[26] = Cytotoxicity against mouse Clone M-3 cells measured after 8 days; type: functional, cell-based; details: Clone M-3, 192 h
OCI-AML2 = assay: Cytotoxicity against human OCI-AML2 cells measured after 8 days; type: functional, cell-based; details: OCI-AML2, 192 h
[27] = Cytotoxicity against human NJG cells measured after 8 days; type: functional, cell-based; details: 192 h
GI-1 = assay: Cytotoxicity against human GI-1 cells measured after 8 days; type: functional, cell-based; details: GI-1, 192 h

C/C=C/Cn1cc(-c2ccc(C(C)(C)O)cc2OC)c2cc[nH]c2c1=O
IC50 [1]: 20 µM
IC50 [2]: 20 µM
IC50 [3]: 20 µM
IC50 [4]: 20 µM
IC50 (NALM-6): 20 µM
IC50 (G-402): 11.7 µM
IC50 (KINGS-1): 20 µM
IC50 (U2OS): 20 µM
IC50 [5]: 20 µM
IC50 [6]: 20 µM
IC50 [7]: 20 µM
IC50 [8]: 20 µM
IC50 [9]: 20 µM
IC50 [10]: 20 µM
IC50 [11]: 20 µM
IC50 (TK-10): 20 µM
IC50 [12]: 20 µM
IC50 (SK-N-SH): 20 µM
IC50 (RT-112): 20 µM
IC50 (NCI-H889): 20 µM
IC50 [13]: 20 µM
IC50 [14]: 20 µM
IC50 (NCI-H716): 20 µM
IC50 (Hs 766): 20 µM
IC50 [15]: 20 µM
IC50 (WM 266-4): 20 µM
IC50 [16]: 20 µM
IC50 (SK-N-BE(2)): 20 µM
IC50 [17]: 6.07 µM
IC50 [18]: 20 µM
IC50 (SU-DHL-6): 11.1 µM
IC50 (NCI-H187): 20 µM
IC50 (DMS-273): 20 µM
IC50 [19]: 20 µM
IC50 (SNU-16): 20 µM
IC50 (OE33): 20 µM
IC50 (EJM): 20 µM
IC50 (COLO-320-HSR): 20 µM
inhibition [20]: 4%
IC50 [21]: 20 µM
IC50 (HEC-1-A): 20 µM
IC50 (SK-MEL-24): 20 µM
IC50 [22]: 20 µM
IC50 (A673): 20 µM
IC50 [23]: 20 µM
IC50 (WM-115): 20 µM
IC50 (Karpas-1106P): 8.61 µM
IC50 (KYSE-520 cell line): 14.4 µM
IC50 (SNU-475): 20 µM
IC50 (KYSE-30): 20 µM
IC50 [24]: 20 µM
IC50 (KMS-12-PE): 20 µM
IC50 (CCF-STTG1): 20 µM
IC50 (MCF-10A): 20 µM
IC50 (Hep 3B2): 20 µM
IC50 [25]: 20 µM
IC50 (NCI-H2171): 20 µM
IC50 [26]: 20 µM
IC50 (OCI-AML2): 14.2 µM
IC50 [27]: 20 µM
IC50 (GI-1): 20 µM

C/C=C/Cn1cc(-c2ccc(C(=O)N3CCOCC3)cc2)c2cc[nH]c2c1=O
IC50 [1]: 20 µM
IC50 [2]: 20 µM
IC50 [3]: 20 µM
IC50 [4]: 20 µM
IC50 (NALM-6): 18.8 µM
IC50 (G-402): 4.76 µM
IC50 (KINGS-1): 20 µM
IC50 (U2OS): 20 µM
IC50 [5]: 20 µM
IC50 [6]: 20 µM
IC50 [7]: 20 µM
IC50 [8]: 20 µM
IC50 [9]: 20 µM
IC50 [10]: 18.3 µM
IC50 [11]: 20 µM
IC50 (TK-10): 20 µM
IC50 [12]: 20 µM
IC50 (SK-N-SH): 20 µM
IC50 (RT-112): 20 µM
IC50 (NCI-H889): 20 µM
IC50 [13]: 20 µM
IC50 [14]: 20 µM
IC50 (NCI-H716): 20 µM
IC50 (Hs 766): 20 µM
IC50 [15]: 20 µM
IC50 (WM 266-4): 20 µM
IC50 [16]: 20 µM
IC50 (SK-N-BE(2)): 20 µM
IC50 [17]: 20 µM
IC50 [18]: 20 µM
IC50 (SU-DHL-6): 12.1 µM
IC50 (NCI-H187): 20 µM
IC50 (DMS-273): 20 µM
IC50 [19]: 20 µM
IC50 (SNU-16): 20 µM
IC50 (OE33): 20 µM
IC50 (EJM): 20 µM
IC50 (COLO-320-HSR): 20 µM
inhibition [20]: 8%
IC50 [21]: 20 µM
IC50 (HEC-1-A): 20 µM
IC50 (SK-MEL-24): 20 µM
IC50 [22]: 20 µM
IC50 (A673): 20 µM
IC50 [23]: 20 µM
IC50 (WM-115): 20 µM
IC50 (Karpas-1106P): 12.2 µM
IC50 (KYSE-520 cell line): 20 µM
IC50 (SNU-475): 20 µM
IC50 (KYSE-30): 20 µM
IC50 [24]: 20 µM
IC50 (KMS-12-PE): 20 µM
IC50 (CCF-STTG1): 20 µM
IC50 (MCF-10A): 20 µM
IC50 (Hep 3B2): 20 µM
IC50 [25]: 20 µM
IC50 (NCI-H2171): 20 µM
IC50 [26]: 20 µM
IC50 (OCI-AML2): 8.38 µM
IC50 [27]: 20 µM
IC50 (GI-1): 20 µM
